≈ marks a conversion by molar mass, not a printed value.
Key:
[1] = test system: Helicobacter pylori SS1 strain or TN2GF4 strain; test: Proliferation inhibitory effect (in vivo) of HYA on Helicobacter pylori, number of bacteria in gastric mucosa; design: species or system C57BL/6 female mouse; conditions: 200 μM in water from 1 week before infection; 2 weeks from final infection
Experimental: A 5-week-old C57BL/6 female mouse was orally infected 3 times with Helicobacter pylori SS1 strain or TN2GF4 strain (1-5×10^8 CFU) every other day and dissected at 2 weeks from the final infection day, and the number of bacteria in the gastric mucosa was counted. Water added with HYA or linoleic acid (200 μM) was given to the mice from 1 week before infection (FIG. 4-1 A: SS1 strain, FIG. 4-2 B: TN2GF4 strain). A 5-week-old C57BL/6 female mouse was orally infected only once with a stomach suspension of Helicobacter suis TKY strain or SNTW101 strain-infected mouse and dissected 2 weeks later, and the number of bacteria in the gastric mucosa was counted. Water added with HYA (200 μM) was given to the mouse from one week before the infection (FIG. 4-3 C). […] The measurement of the number of Helicobacter suis bacteria in the stomach of the infected mouse was performed as follows.

[2] = test system: Campylobacter jejuni ATCC33560 strain; test: Proliferation inhibitory effect (in vitro) on Campylobacter jejuni, absorbance and colony count; type: cell-based; conditions: 100, 200, 400 μM, 24 hr; concentration dependent; strong compared to linoleic acid
[3] = test system: Helicobacter pylori SS1 strain, TN2GF4 strain, ATCC43579 strain, NCTC11637 strain, TY281 strain, TY1345 strain; test: Proliferation inhibitory effect (in vitro), static culture 3 days, colony count; type: cell-based; conditions: fatty acid 200 μM or 1000 μM, 3 days; six strains; compared with linoleic acid
Experimental: Helicobacter pylori SS1 strain, TN2GF4 strain, ATCC43579 strain, NCTC11637 strain, TY281 strain, TY1345 strain were each inoculated to a 6-well plate containing 3 mL of a liquid medium (Brucella broth added with 10% FCS), and fatty acid (200 μM or 1000 μM) and menaquinone (MK-4) 100 μg/mL were added. After static culture for 3 days at temperature 37° C., microaerobic conditions (5% 02, 10% 002, 85% N2), the culture medium was applied on a Helicobacter agar plate, cultured for 3 days and the resulting colonies were counted (FIG. 1-1 A: SS1 strain, FIG. 1-2 B: TN2GF4 strain, FIG. 1-3 C: ATCC43579 strain, FIG. 1-4 D: NCTC11637 strain, FIG. 1-5 E: TY281 strain, FIG. 1-6 F: TY1345 strain. Item C: control (no addition), Item 1: HYA addition, Item 2: HYA and menaquinone addition, Item 3: linoleic acid addition, Item 4: linoleic acid and menaquinone addition).

[4] = test system: Helicobacter suis TKY strain or SNTW101 strain; test: Proliferation inhibitory effect (in vivo) of HYA on Helicobacter suis, real-time PCR quantification, 2 weeks after infection; design: species or system C57BL/6 female mouse; conditions: 200 μM in water from one week before infection; 2 weeks later
Experimental: A 5-week-old C57BL/6 female mouse was orally infected 3 times with Helicobacter pylori SS1 strain or TN2GF4 strain (1-5×10^8 CFU) every other day and dissected at 2 weeks from the final infection day, and the number of bacteria in the gastric mucosa was counted. Water added with HYA or linoleic acid (200 μM) was given to the mice from 1 week before infection (FIG. 4-1 A: SS1 strain, FIG. 4-2 B: TN2GF4 strain). A 5-week-old C57BL/6 female mouse was orally infected only once with a stomach suspension of Helicobacter suis TKY strain or SNTW101 strain-infected mouse and dissected 2 weeks later, and the number of bacteria in the gastric mucosa was counted. Water added with HYA (200 μM) was given to the mouse from one week before the infection (FIG. 4-3 C). […]
DNA was prepared from a part of the stomach tissue by using DNeasy Blood & Tissue Kit (Qiagen) and real-time PCR (model: CFX96 (Bio-Rad)) was performed. As the primer for Helicobacter suis quantification, the following was used by reference to Diagn. […]
The following were used as the primers for β-actin quantification of the mouse by reference to J. Clin. Microbiol. […]
For quantification by real-time PCR, iQ™ SYBR Green Supermix was used. […]
Thereafter, the temperature was increased by 0.5° C. every seconds from 65° C. to 95° C. and the fluorescence was measured. […]

[5] = test system: Helicobacter pylori SS1 strain or TN2GF4 strain; test: Inhibitory effect (in vivo) of fatty acid, number of bacteria in gastric mucosa of infected mice; design: species or system C57BL/6 female mouse
Experimental: A 5-week-old C57BL/6 female mouse was orally infected 3 times with Helicobacter pylori SS1 strain or TN2GF4 strain (1-5×10^8 CFU) every other day and dissected at 2 weeks from the final infection day, and the number of bacteria in the gastric mucosa was counted. The measurement and the number of bacteria in the gastric mucosa was performed as follows. First, the greater curvature of the stomach of the mouse was incised with scissors for ophthalmology, and the contents were washed away with phosphate buffered saline (pH 7.4, PBS). Next, the mucous membrane was scraped with a slide glass, 1 mL of PBS was added, the mixture was sandwiched between ground glass parts of two glass slides and evenly crushed to prepare a gastric mucosa suspension. The culture medium was applied on a Helicobacter agar plate, cultured for 3 days and the resulting colonies were counted. Water added with fatty acid (200 μM) (HYA, HYB, KetoA, KetoC, linoleic acid, oleic acid, DHA, EPA) was given to the mice from 1 week before infection. The control was free of fatty acid addition (FIG. 3-1 A: infected with SS1 strain, FIG. 3-2 B: infected with TN2GF4 strain).

[6] = test system: Campylobacter coli ATCC33559 strain; test: Proliferation inhibitory effect (in vitro) on Campylobacter coli, absorbance and colony count; type: cell-based; conditions: 100, 200, 400 μM, 24 hr; concentration dependent; strong compared to linoleic acid
[7] = test system: Helicobacter pylori TK1029 strain; test: Proliferation inhibitory effect (in vitro) by ED50 measurement, viable count; type: cell-based
Experimental: Helicobacter pylori TK1029 strain (clinical isolate) was cultured in Brucella broth containing 10% FCS and 1×10^6 CFU of bacteria were respectively added to 3 mL of Brain-Heart Infusion Broth (BHI) media (previously added with free fatty acid (stearic acid, oleic acid, linoleic acid, ricinoleic acid, HYA) at 0, 0.5, 5, 50, 500 μg/mL) containing 2% FCS in a 6-well plate. Shaking culture was performed under conditions of temperature 37° C., humidity 100%, microaerobic (5% 02, 10% CO2, 85% N2), the culture medium (0.1 mL) from each well was applied to NISSUI plate, Helicobacter agar medium 15 hr and 25 hr later, and the number of colonies formed after microaerobic culture for 3 days was counted.

CCCCC/C=C\CC(O)CCCCCCCCC(=O)O (stereo not drawn) [HYA, 10-hydroxy-cis-12-octadecenoic acid]
proliferation of Helicobacter pylori SS1 strain, TN2GF4 strain (number of bacteria in gastric mucosa) [1]: inhibited proliferation | proliferation of Campylobacter jejuni ATCC33560 strain [2]: inhibited proliferation | proliferation of Helicobacter pylori (colony count) [3]: suppressed proliferation | proliferation of Helicobacter suis TKY strain, SNTW101 strain (number of bacteria in gastric mucosa) [4]: inhibited proliferation | number of Helicobacter pylori in the gastric mucosa, compared to the control ([5]; 200 μM in water from 1 week before infection, 2 weeks from final infection, both SS1 and TN2GF4 strain): significantly suppressed | suppressive action compared to HYB, KetoA, KetoC, linoleic acid, oleic acid, DHA and EPA ([5]; 200 μM in water, SS1 and TN2GF4 strain infected mice): strong suppressive action | proliferation of Campylobacter coli ATCC33559 strain [6]: inhibited proliferation | ED50 value times lower than that of ricinoleic acid ([7]; 15 hr after culturing): about 10 times | ED50 value, 15 hr later ([7]; 15 hr shaking culture, BHI 2% FCS, viable count): 0.5 µg/mL (≈ 1.68 µM) | ED50 values compared with the other fatty acids ([7]; 25 hr after culturing): remarkably lower than or the same level as | ED50 value, 25 hr later ([7]; 25 hr shaking culture, BHI 2% FCS, viable count): 0.5 µg/mL (≈ 1.68 µM)

— patent US12357601B2, “Composition for inhibiting growth of bacterium having menaquinone synthesis pathway through futalosine or futalosine derivative” (NOSTER INC., priority 2017, dated 2025)
